Assay results taken from patent publication US5126337A, “Thiazetoquinoline-3-carboxylic acid derivative and a pharmaceutical composition comprising the same” (priority 1989, dated 1992).
Values after ≈ are worked out from the molar mass of the structure shown. Like-named read-outs stand apart in the source and are kept apart here.

Key:
[1] = system: Acinetobacter calcoaceticus HNR 904; assay: Antibacterial spectrum, MIC by twofold agar dilution method; assay type: cell-based; conditions: HNR904, 10^6 cfu/ml, clinically isolated strain, Gram -, 18 hrs at 37° C
Method: (§1) Overnight cultures in Mueller-Hinton broth were suspended by buffered saline gelatin. One loopful of the bacterial suspension (10^6 or 10^8 colony-forming units/ml) was incubated onto the plates containing test compounds. The plates were incubated for 18 hrs at 37° C. The MIC was defined by the lowest concentration of the drug that inhibited visible growth of bacteria.

[2] = system: Acinetobacter calcoaceticus HNR 916; assay: as above; assay type: cell-based; conditions: HNR916, 10^6 cfu/ml, clinically isolated strain, Gram -, 18 hrs at 37° C
Method: as §1

[3] = system: Acinetobacter calcoaceticus HNR 939; assay: as above; assay type: cell-based; conditions: HNR939, 10^6 cfu/ml, clinically isolated strain, Gram -, 18 hrs at 37° C
Method: as §1

Enterobacter cloacae 963 = assay: as above; assay type: cell-based; conditions: 10^6 cfu/ml, standard laboratory strain, Gram -, 18 hrs at 37° C
Method: as §1

[4] = system: Enterobacter cloacae HNR 1939; assay: as above; assay type: cell-based; conditions: HNR1939, 10^6 cfu/ml, clinically isolated strain, Gram -, 18 hrs at 37° C
Method: as §1

[5] = system: Enterobacter cloacae HNR 1941; assay: as above; assay type: cell-based; conditions: HNR1941, 10^6 cfu/ml, clinically isolated strain, Gram -, 18 hrs at 37° C
Method: as §1

[6] = system: Enterobacter cloacae HNR 1946; assay: as above; assay type: cell-based; conditions: HNR1946, 10^6 cfu/ml, clinically isolated strain, Gram -, 18 hrs at 37° C
Method: as §1

[7] = system: Enterococcus faecalis HPC 948; assay: as above; assay type: cell-based; conditions: HPC948, 10^6 cfu/ml, clinically isolated strain, Gram +, 18 hrs at 37° C
Method: as §1

[8] = system: Enterococcus faecalis HPC 975; assay: as above; assay type: cell-based; conditions: HPC975, 10^6 cfu/ml, clinically isolated strain, Gram +, 18 hrs at 37° C
Method: as §1

[9] = system: Enterococcus faecalis HPC 984; assay: as above; assay type: cell-based; conditions: HPC984, 10^6 cfu/ml, clinically isolated strain, Gram +, 18 hrs at 37° C
Method: as §1

[10] = system: Escherichia coli NIHJ JC-2; assay: as above; assay type: cell-based; conditions: NIHJJC2, 10^6 cfu/ml, standard laboratory strain, Gram -, 18 hrs at 37° C
Method: as §1

[11] = system: Klebsiella pneumoniae HNR 828; assay: as above; assay type: cell-based; conditions: HNR828, 10^6 cfu/ml, clinically isolated strain, Gram -, 18 hrs at 37° C
Method: as §1

[12] = system: Klebsiella pneumoniae HNR 858; assay: as above; assay type: cell-based; conditions: HNR858, 10^6 cfu/ml, clinically isolated strain, Gram -, 18 hrs at 37° C
Method: as §1

[13] = system: Klebsiella pneumoniae HNR 869; assay: as above; assay type: cell-based; conditions: HNR869, 10^6 cfu/ml, clinically isolated strain, Gram -, 18 hrs at 37° C
Method: as §1

[14] = system: Pseudomonas aeruginosa HNR 1472; assay: as above; assay type: cell-based; conditions: HNR1472, 10^6 cfu/ml, clinically isolated strain, Gram -, 18 hrs at 37° C
Method: as §1

[15] = system: Pseudomonas aeruginosa HNR 1489; assay: as above; assay type: cell-based; conditions: HNR1489, 10^6 cfu/ml, clinically isolated strain, Gram -, 18 hrs at 37° C
Method: as §1

[16] = system: Pseudomonas aeruginosa HNR 1537; assay: as above; assay type: cell-based; conditions: HNR1537, 10^6 cfu/ml, clinically isolated strain, Gram -, 18 hrs at 37° C
Method: as §1

[17] = system: Pseudomonas aeruginosa IFO 3445; assay: as above; assay type: cell-based; conditions: IFO3445, 10^6 cfu/ml, standard laboratory strain, Gram -, 18 hrs at 37° C
Method: as §1

[18] = system: Serratia marcescens HNR 1544; assay: as above; assay type: cell-based; conditions: HNR1544, 10^6 cfu/ml, clinically isolated strain, Gram -, 18 hrs at 37° C
Method: as §1

[19] = system: Serratia marcescens HNR 1767; assay: as above; assay type: cell-based; conditions: HNR1767, 10^6 cfu/ml, clinically isolated strain, Gram -, 18 hrs at 37° C
Method: as §1

[20] = system: Serratia marcescens HNR 1792; assay: as above; assay type: cell-based; conditions: HNR1792, 10^6 cfu/ml, clinically isolated strain, Gram -, 18 hrs at 37° C
Method: as §1

[21] = system: Serratia marcescens IAM 1184; assay: as above; assay type: cell-based; conditions: IAM1184, 10^6 cfu/ml, standard laboratory strain, Gram -, 18 hrs at 37° C
Method: as §1

[22] = system: Staphylococcuss aureus HPC 292; assay: as above; assay type: cell-based
Method: as §1

[23] = system: Staphylococcuss aureus HPC 308; assay: as above; assay type: cell-based; conditions: 10^6 cfu/ml; clinically isolated strain, Gram +; 18 hrs at 37° C
Method: as §1

[24] = system: Staphylococcuss aureus HPC 527; assay: as above; assay type: cell-based; conditions: 10^6 cfu/ml; clinically isolated strain, Gram +; 18 hrs at 37° C
Method: as §1

[25] = system: Staphylococuss aureus FDA 209PJC-1; assay: as above; assay type: cell-based; conditions: 10^6 cfu/ml; standard laboratory strain, Gram +; 18 hrs at 37° C
Method: as §1

[26] = system: Klebsiella pneumoniae PCI-602; assay: as above; assay type: cell-based; conditions: PCI602, 10^6 cfu/ml, standard laboratory strain, Gram -, 18 hrs at 37° C, read-out: MIC
Method: as §1, with “Minimum inhibitory concentrations (MIC) of test compounds were determined by the twofold agar dilution method (Chemotherapy, 29(1), 76(1981)). Overnight” for “Overnight”

Male mice of ddY strain = assay: Convulsion inducing activity in combination with fenbufen; conditions: 30 min after fenbufen 100 mg/kg orally
Method: Male mice of ddY strain, 5 weeks old, were used. Fenbufen suspended in 0.5% carboxymethyl cellulose was administered orally at a dose of 100 mg/kg. After thirty minutes, test compounds suspended in 0.5% carboxymethyl cellulose were injected intraperitoneally (i.p.) at a dose of 100 mg/kg or 300 mg/kg.

Compound | MIC [1] | MIC [2] | MIC [3] | MIC (Enterobacter cloacae 963) | MIC [4] | MIC [5] | MIC [6] | MIC [7] | MIC [8] | MIC [9] | MIC [10] | MIC [11] | MIC [12] | MIC [13] | MIC [14] | MIC [15] | MIC [16] | MIC [17] | MIC [18] | MIC [19] | also measured
CC1Sc2c(C(=O)O)c(=O)c3cc(F)c(N4CCC(N(C)C)C4)c(F)c3n21 (stereo not drawn) [Example 36, 7-(3-Dimethylamino-1-pyrrolidinyl)-6,8-difluoro-1-methyl-4-oxo-1H,4H-[1,3]thiazeto[3,2-a]quinoline-3-carboxylic acid] | 12.5 µg/mL (≈ 31.6 µM) | 0.1 µg/mL (≈ 0.253 µM) | 0.78 µg/mL (≈ 1.97 µM) | 0.2 µg/mL (≈ 0.506 µM) | 0.78 µg/mL (≈ 1.97 µM) | 25 µg/mL (≈ 63.2 µM) | 0.78 µg/mL (≈ 1.97 µM) | 3.13 µg/mL (≈ 7.92 µM) | 6.25 µg/mL (≈ 15.8 µM) | 0.78 µg/mL (≈ 1.97 µM) | 0.1 µg/mL (≈ 0.253 µM) | 12.5 µg/mL (≈ 31.6 µM) | 0.78 µg/mL (≈ 1.97 µM) | 6.25 µg/mL (≈ 15.8 µM) | 50 µg/mL (≈ 126 µM) | 0.78 µg/mL (≈ 1.97 µM) | 100 µg/mL (≈ 253 µM) | 0.78 µg/mL (≈ 1.97 µM) | 0.2 µg/mL (≈ 0.506 µM) | 25 µg/mL (≈ 63.2 µM) | MIC [20]: 12.5 µg/mL (≈ 31.6 µM); MIC [21]: 0.2 µg/mL (≈ 0.506 µM); MIC ([22]; 10^6 cfu/ml, clinically isolated strain, Gram +, 18 hrs at 37° C, read-out: MIC): 6.25 µg/mL (≈ 15.8 µM); MIC [23]: 1.56 µg/mL (≈ 3.95 µM); MIC [24]: 0.2 µg/mL (≈ 0.506 µM); MIC [25]: 0.2 µg/mL (≈ 0.506 µM); MIC [26]: 0.025 µg/mL (≈ 0.0632 µM)
CC1Sc2c(C(=O)O)c(=O)c3cc(F)c(N4CC[C@H](N(C)C)C4)c(F)c3n21 (stereo partly drawn) [Example 37, 7-((S)-3-Dimethylamino-1-pyrrolidinyl)-6,8-difluoro-1-methyl-4-oxo-1H,4H-[1,3]thiazeto[3,2-a]quinoline-3-carboxylic acid] | 25 µg/mL (≈ 63.2 µM) | 0.2 µg/mL (≈ 0.506 µM) | 1.56 µg/mL (≈ 3.95 µM) | 0.2 µg/mL (≈ 0.506 µM) | 0.78 µg/mL (≈ 1.97 µM) | 25 µg/mL (≈ 63.2 µM) | 1.56 µg/mL (≈ 3.95 µM) | 3.13 µg/mL (≈ 7.92 µM) | 12.5 µg/mL (≈ 31.6 µM) | 0.78 µg/mL (≈ 1.97 µM) | 0.1 µg/mL (≈ 0.253 µM) | 12.5 µg/mL (≈ 31.6 µM) | 0.78 µg/mL (≈ 1.97 µM) | 3.13 µg/mL (≈ 7.92 µM) | 50 µg/mL (≈ 126 µM) | 0.78 µg/mL (≈ 1.97 µM) | 100 µg/mL (≈ 253 µM) | 0.78 µg/mL (≈ 1.97 µM) | 0.2 µg/mL (≈ 0.506 µM) | 25 µg/mL (≈ 63.2 µM) | MIC [20]: 12.5 µg/mL (≈ 31.6 µM); MIC [21]: 0.39 µg/mL (≈ 0.986 µM); MIC ([22]; 18 h): 6.25 µg/mL (≈ 15.8 µM); MIC [23]: 3.13 µg/mL (≈ 7.92 µM); MIC [24]: 0.2 µg/mL (≈ 0.506 µM); MIC [25]: 0.2 µg/mL (≈ 0.506 µM); MIC [26]: 0.05 µg/mL (≈ 0.126 µM)
CC1Sc2c(C(=O)O)c(=O)c3cc(F)c(N4CCNCC4)c(F)c3n21 (stereo not drawn) [Reference Drug C, 6,8-difluoro-1-methyl-4-oxo-7-(1-piperazinyl)-1H,4H-[1,3]thiazeto[3,2-a]quinoline-3-carboxylic acid, reference compound] | – | – | – | – | – | – | – | – | – | – | – | – | – | – | – | – | – | – | – | – | Number of convulsion induced/Number of animals (Male mice of ddY strain; 100 mg/kg (i.p.)): 6/6
CC1Sc2c(C(=O)O)c(=O)c3cc(F)c(N4CCC(N)C4)cc3n21 (stereo not drawn) [Reference Drug D, 7-(3-amino-1-pyrrolidinyl)-6-fluoro-1-methyl-4-oxo-1H,4H-[1,3]thiazeto[3,2-a]quinoline-3-carboxylic acid, reference compound] | – | – | – | – | – | – | – | – | – | – | – | – | – | – | – | – | – | – | – | – | Number of convulsion induced/Number of animals (Male mice of ddY strain; 100 mg/kg (i.p.)): 0/6; Number of convulsion induced/Number of animals (Male mice of ddY strain; 300 mg/kg (i.p.)): 0/6
